According to patent publication US11178870B2 (priority 2017, dated 2021):
Read-outs that look alike come from different tables or passages of the source.

What was measured:
Magnaporthe grisea = assay: whole plant or invertebrate; format: in vivo; conditions: Pyricularia oryzae, in Oryza sativa
Botrytis cinerea = assay: Test Example B: Gray mold on tomato; format: in vivo
Alternaia brassicicola = assay: Test Example C: Alternaria sooty spot on cabbage; format: in vivo; conditions: Brassica oleracea
[1] = tested on: Blumeria graminis f. sp. hordei; assay: Test Example D: Powdery mildew on barley; format: in vivo
Puccinia recondita = assay: Test Example E: Brown rust on wheat; format: in vivo
Phytophthora infestans = assay: whole plant or invertebrate; format: in vivo; conditions: in Solanum lycopersicum
Plasmopara viticola = assay: Test Example G: Downy mildew on vine; format: in vivo
[2] = tested on: Colletotrichum orbiculare; assay: whole plant or invertebrate; conditions: in Cucumis sativus, read-out: control value, Test H (anthracnose on cucumber)
Procedure: Seeds of a test plant (cucumber variety: Sagami Hanjiro) were planted and cultivated until the first leaf appeared. In the test, the compounds of the present invention were dissolved into a dimethyl sulfoxide-methanol mixture solution (volume ratio: 9/1), and the resultant solutions were diluted with well water to a concentration of 250 ppm. The thus-obtained dilutions were sprayed to the test plant (2.5 ml/pot). After the dilutions dried, a conidial suspension (2-4×10^5 conidia/ml) of Colletotrichum orbiculare was inoculated to the plant by spraying. After the inoculation, the plant was kept in a mist chamber at room temperature of 20 to 23° C. for about 24 hours to promote the onset of disease. The disease development was investigated 6 to 10 days after the inoculation, and the effectiveness of the dilutions was evaluated.
Disease development in Test Example described above was evaluated in increments of 0.05 by setting 0 as no incidence of disease and 3 as disease development in a plant of untreated group. In addition, control values were calculated using the following equation based on disease development.
Control value=100 {1−(n/3)}
n=Disease development of each treated groups

[3] = Gray mold on tomato, read-out: Test B control value
[4] = Alternaria sooty spot on cabbage, read-out: Test C control value
[5] = Powdery mildew on barley, read-out: Test D control value
[6] = Brown rust on wheat, read-out: Test E control value
[7] = Downy mildew on vine, 250 ppm sprayed, 2.5 ml/pot, 7 to 10 days after inoculation, read-out: Test G control value
[8] = read-out: control value, Test A (blast on rice)
[9] = Table 7, Test B, read-out: control value, Test B (gray mold on tomato)
[10] = Table 7, Test C, read-out: control value, Test C (Alternaria sooty spot on cabbage)
[11] = Table 7, Test D, read-out: control value, Test D (powdery mildew on barley)
[12] = Table 7, Test E, read-out: control value, Test E (brown rust on wheat)
[13] = read-out: control value, Test F (late blight on tomato)
[14] = 250 ppm sprayed (2.5 ml/pot) before inoculation, assessed 7 to 10 days after inoculation, read-out: control value, Test G (downy mildew on vine)

Row | SMILES | pest or weed control at 250 µg/mL (Magnaporthe grisea; read-out: Test A control value) | pest or weed control at 250 µg/mL (Botrytis cinerea; [3]) | pest or weed control at 250 µg/mL (Alternaia brassicicola; [4]) | pest or weed control at 250 µg/mL [1, 5] | pest or weed control at 250 µg/mL (Puccinia recondita; [6]) | pest or weed control at 250 µg/mL (Phytophthora infestans; read-out: Test F control value) | pest or weed control at 250 ppm (Plasmopara viticola; [7]) | pest or weed control at 250 µg/mL (Magnaporthe grisea; [8]) | pest or weed control at 250 µg/mL (Botrytis cinerea; [9]) | pest or weed control at 250 µg/mL (Alternaia brassicicola; [10]) | pest or weed control at 250 µg/mL [1, 11] | pest or weed control at 250 µg/mL (Puccinia recondita; [12]) | pest or weed control at 250 µg/mL (Phytophthora infestans; [13]) | pest or weed control at 250 ppm (Plasmopara viticola; [14]) | pest or weed control at 250 ppm [2] | pest or weed control at 250 µg/mL (Botrytis cinerea; in Solanum lycopersicum, Table 7, Test B, read-out: control value, Test B (gray mold on tomato)) | pest or weed control at 250 µg/mL ([1]; in Hordeum vulgare, Table 7, Test D, read-out: control value, Test D (powdery mildew on barley)) | pest or weed control at 250 µg/mL (Puccinia recondita; in Triticum aestivum, Table 7, Test E, read-out: control value, Test E (brown rust on wheat))
1 | CCn1c(-c2c(F)cc(F)cc2F)c(-n2cc(Cl)cn2)cc(Br)c1=O [compound 71, 5-(4-chloro-1H-pyrazol-1-yl)-1-ethyl-3-bromo-6-(2,4,6-trifluoro-phenyl)pyridin-2(1H)-one] | > 50% | > 50% | > 50% | > 50% | > 50% | < 50% | < 50% |  |  |  |  |  |  |  |  |  |  | 
2 | CCn1c(-c2c(F)cc(OC)cc2F)c(-n2cc(Br)cn2)cc(Cl)c1=O [compound 72, 5-(4-bromo-1H-pyrazol-1-yl)-3-chloro-6-(2,6-difluoro-4-methoxyphenyl)-1-ethylpyridin-2(1H)-one] | > 50% | > 50% | > 50% | > 50% | > 50% | < 50% | < 50% |  |  |  |  |  |  |  |  |  |  | 
3 | CCn1c(-c2c(F)cccc2F)c(-c2c[nH]cc2C#N)cc(Cl)c1=O [compound 88, 4-(5-chloro-1-ethyl-6-oxo-2-(2,6-difluorophenyl)-1,6-dihydro-pyridin-3-yl)-1H-pyrrol-3-carbonitrile] | < 50% | < 50% | > 50% | < 50% | < 50% | < 50% | < 50% |  |  |  |  |  |  |  |  |  |  | 
4 | CCn1c(-c2c(F)cc(F)cc2F)c(-c2ocnc2Cl)cc(Cl)c1=O [compound 112, 3-chloro-5-(4-chlorooxazol-5-yl)-1-ethyl-6-(2,4,6-trifluoro-phenyl)pyridin-2(1H)-one] | > 50% | > 50% | > 50% | > 50% | > 50% | < 50% | > 50% |  |  |  |  |  |  |  |  |  |  | 
5 | CCn1c(-c2c(F)cc(F)cc2F)c(-n2cnc(Cl)c2Cl)ccc1=O [compound 136, 5-(4,5-dichloro-1H-imidazol-1-yl)-1-ethyl-6-(2,4,6-trifluorophenyl)pyridin-2(1H)-one] | > 50% | > 50% | > 50% | > 50% | > 50% | < 50% | > 50% |  |  |  |  |  |  |  |  |  |  | 
6 | CCn1c(-c2c(F)cc(F)cc2F)c(-n2cnc(Cl)c2Cl)cc(Cl)c1=O [compound 138, 3-chloro-5-(4,5-dichloro-1H-imidazol-1-yl)-1-ethyl-6-(2,4,6-trifluorophenyl)pyridin-2(1H)-one] | > 50% | > 50% | > 50% | > 50% | > 50% | < 50% | < 50% |  |  |  |  |  |  |  |  |  |  | 
7 | CCn1c(-c2c(F)cc(F)cc2F)c(-n2cc(Cl)cn2)cc(I)c1=O [compound 140, 5-(4-chloro-1H-pyrazol-1-yl)-1-ethyl-3-iodo-6-(2,4,6-trifluoro-phenyl)pyridin-2(1H)-one] | < 50% | > 50% | > 50% | > 50% | > 50% | < 50% | < 50% |  |  |  |  |  |  |  |  |  |  | 
8 | CCn1c(-c2c(F)cc(O)cc2F)c(-n2cc(Cl)cn2)cc(Cl)c1=O [compound 184, 3-chloro-5-(4-chloro-1H-pyrazol-1-yl)-6-(2,6-difluoro-4-hydroxyphenyl)-1-ethylpyridin-2(1H)-one] |  |  |  |  |  |  |  | < 50% | > 50% | > 50% | < 50% | > 50% | < 50% | > 50% | > 50% |  |  | 
9 | C#CCOc1cc(F)c(-c2c(-n3cc(Cl)cn3)cc(Cl)c(=O)n2CC)c(F)c1 [compound 201, 3-chloro-5-(4-chloro-1H-pyrazol-1-yl)-6-(2,6-difluoro-4-(propargyloxy)phenyl)-1-ethyl pyridin-2(1H)-one] |  |  |  |  |  |  |  | > 50% | > 50% | > 50% | > 50% | > 50% | < 50% | < 50% | > 50% |  |  | 
10 | C=CCOc1cc(F)c(-c2c(-n3cc(Cl)cn3)cc(Cl)c(=O)n2CC)c(F)c1 [compound 202, 6-(4-(allyloxy)-2,6-difluorophenyl)-3-chloro-5-(4-chloro-1H-pyrazol-1-yl)-1-ethylpyridin-2(1H)-one] |  |  |  |  |  |  |  | > 50% | > 50% | > 50% | > 50% | > 50% | < 50% | < 50% | > 50% |  |  | 
11 | CCn1c(-c2c(F)cc(OCCOC)cc2F)c(-n2cc(Cl)cn2)cc(Cl)c1=O [compound 204, 3-chloro-5-(4-chloro-1H-pyrazol-1-yl)-6-(2,6-difluoro-4-(2-methoxyethoxy)phenyl)-1-ethylpyridin-2(1H)-one] |  |  |  |  |  |  |  | < 50% | > 50% | > 50% | < 50% | < 50% | < 50% | < 50% | > 50% |  |  | 
12 | CCn1c(-c2c(F)cc(OC(C)=O)cc2F)c(-n2cc(Cl)cn2)cc(Cl)c1=O [compound 205] |  |  |  |  |  |  |  | < 50% |  | > 50% |  |  | < 50% | < 50% | < 50% | > 50% | < 50% | > 50%
13 | CCn1c(-c2c(F)cc(F)cc2F)c(-n2cc(Cl)cn2)cc(C)c1=O [compound 206, 5-(4-chloro-1H-pyrazol-1-yl)-1-ethyl-3-methyl-6-(2,4,6-trifluoro-phenyl)pyridin-2(1H)-one] |  |  |  |  |  |  |  | > 50% | > 50% | > 50% | > 50% | > 50% | < 50% | < 50% | > 50% |  |  | 
14 | C#Cc1cc(-n2cc(Cl)cn2)c(-c2c(F)cc(F)cc2F)n(CC)c1=O [compound 223, 5-(4-chloro-1H-pyrazol-1-yl)-1-ethyl-3-ethynyl-6-(2,4,6-trifluorophenyl)pyridin-2(1H)-one] |  |  |  |  |  |  |  | > 50% | < 50% | > 50% | < 50% | < 50% | < 50% | > 50% | < 50% |  |  | 
15 | CCn1c(-c2c(F)cc(F)cc2F)c(-n2cc(Cl)cn2)cc(OC)c1=O [compound 225, 5-(4-chloro-1H-pyrazol-1-yl)-1-ethyl-3-methoxy-6-(2,4,6-trifluorophenyl)pyridin-2(1H)-one] |  |  |  |  |  |  |  | < 50% | < 50% | > 50% | > 50% | > 50% | < 50% | > 50% | < 50% |  |  | 
16 | CCn1c(-c2ccc(F)cc2F)c(-n2cc(C)cn2)cc(Br)c1=O [compound 226, 3-bromo-6-(2,4-difluorophenyl)-1-ethyl-5-(4-methyl-1H-pyrazol-1-yl)pyridin-2(1H)-one] |  |  |  |  |  |  |  | > 50% | > 50% | > 50% | > 50% | > 50% | < 50% | > 50% | > 50% |  |  | 
17 | CCn1c(-c2ccc(F)cc2F)c(-n2ncc(C)c2Cl)cc(Br)c1=O [compound 228, 3-bromo-5-(5-chloro-4-methyl-1H-pyrazol-1-yl)-6-(2,4-difluoro-phenyl)-1-ethylpyridin-2(1H)-one] |  |  |  |  |  |  |  | > 50% | > 50% | > 50% | > 50% | > 50% | < 50% | < 50% | > 50% |  |  | 
